Results on two compounds are retold here after patent US20250064729A1, “METHODS AND FORMULATIONS FOR IMPROVING THE PHARMACOKINETIC PROPERTIES OF NUTRACEUTICAL COMPOUNDS” (UNIVERSITY OF SOUTH CAROLINA, priority 2023, published 2025).

This series is described as follows: Solubility assessment under saturation conditions in simulated gastrointestinal media. The settings on record: thermodynamic from solid. The method, then: Biological media (Biorelevant.com, London, UK) were prepared according to the manufacturer's instructions. […] The resulting suspensions were left for 1 h at room temperature under constant magnetic stirring. A 200-μl aliquot of each suspension was taken into an Eppendorf tube and centrifuged at top speed, and 100 μl supernatant was taken for UV spectrometer detection at 434 nm for emodin and 371 nm for quercetin. The concentration was calculated based on standard curves established using pure emodin or quercetin completely dissolved in methanol.

Molecules are shown by their SMILES. In brackets after ≈: the same amount, converted by molar mass.

For orientation: solubility means how much of the substance goes into solution per volume. Read a high solubility as much dissolved substance. With `Cc1cc(O)c2c(c1)C(=O)c1cc(O)cc(O)c1C2=O` [Emodin, 1,3,8-trihydroxy-6-methylanthraquinone], the solubility at 1 h was 7.1 µg/mL (≈ 26.3 µM) (pH 1.6, fassgf or other biorelevant) and 27.2 µg/mL (≈ 101 µM) (pH 6.5, fassif).

Regarding `O=c1c(O)c(-c2ccc(O)c(O)c2)oc2cc(O)cc(O)c12` [Quercetin, 3,3′,4′,5,7-pentahydroxylflavone], the solubility at 1 h by setting is: (FaSSGF (fasted-state simulated gastric fluid), pH 1.6, fassgf or other biorelevant) 20.8 µg/mL (≈ 68.8 µM); (FaSSIF (fasted-state simulated intestinal fluid), pH 6.5, fassif) 43.4 µg/mL (≈ 144 µM); (FeSSIF (fed-state simulated intestinal fluid), pH 5, fessif) 146 µg/mL (≈ 481 µM).
